Reference: patent US20160251614A1, “CELL CULTURE MEDIUM AND BIOPROCESS OPTIMIZATION” (UNIVERSITY OF NOTRE DAME DU LAC, priority 2013, published 2016)

Key:
Assay type in all cases: cell-based, Drosophila
C1.8 cells [1] = experiment: Primary small molecule screen in ZO Fortified, CyQUANT Direct Proliferation Assay; details: C1.8 cells in ZO Fortified; for compound z-score (zC1.8): 4 days, z vs negative control, hit cutoffs z=±3; for hit call, primary screen: hit cutoffs ±3
Experimental: (§1) Five stock plates of randomized compounds (410 total) were prepared at 75 μM in water (1:133 dilution) using an automated liquid handler (Eppendorf EPMotion 5075). Strategically located negative control wells were incorporated into the stock plates by dosing wells with DMSO (1:133, carrier only control). Randomly placed positive control wells were also included by dosing wells with DMSO (1:133); for flexibility, positive controls were prepared in the working stock. Working stocks plates at 2 and 20 μM (2×) were then prepared in ZO Fortified by diluting the 5 stock plates 1:3.75 (high concentration working stock) and then serially diluting 1:10 (low concentration working stock). Positive control wells were prepared by replacing 10% of the media with 100% fly extract (FEX).
(§2) Cells were rinsed three times in PBS and seeded at a concentration of 50,000 cells/well (50 μL) in ZO Fortified (primary screen) or ZO Fortified supplemented with 2 μM spermidine (secondary screen) in 10 plates. Working stocks, 50 μL, were then immediately added on top of the cells (day 0). Plates were incubated at 25° C. for four days. On the fourth day, plates were imaged at 10× magnification on a confocal microscope using automated screen acquisition (Andor Spinning Disc Confocal Microscope, Metamorph Software). CyQUANT® Direct Proliferation Assay (Invitrogen) was then added (0.25× final conc.) and fluorescent intensity was measured with a plate reader (Biotek Synergy H2).
(§3) Five stock plates of randomized compounds in singlet (410 total) were prepared at 75 μM in water (1:133 dilution) using an automated liquid handler (Eppendorf epMotion® 5075). Ten strategically located negative controls were incorporated into each stock plate by dosing wells with DMSO (1:133, carrier only control) (Zhang, Optimal High-Throughput Screening: Practical Experimental Design and Data Analysis for Genome Scale RNAi Research, 2011). Four randomly placed positive control wells were also included on each plate by dosing wells with DMSO (1:133) for consistency, but for flexibility positive control treatments were prepared in the working stock. Working stocks at 2 and 20 μM (2×) were then prepared in ZO Fortified by diluting the 5 stock plates 1:3.75 (high concentration working stock) and then serially diluting 1:10 (low concentration working stock). Positive control wells were prepared by replacing 10% of the media with 100% fly extract (FEX) (see Zartman et al., Dev. Camb. Engl., 2013, 140, 667-674).
(§4) Cells were rinsed three times in phosphate buffered saline (PBS) and seeded at 50,000 cells/well (50 μL) in ZO Fortified. Working stocks, 50 μL, were then immediately added on top of the cells (day 0). Plates were incubated at 25° C. for four days, and then imaged at 10× magnification on a Nikon microscope using automated screen acquisition in MetaMorph® software. Plates were then treated with CyQUANT® (0.25× final concentration) for one hour at 25° C., and fluorescent intensity was measured with a plate reader (Biotek Synergy H2).
(§5) Strictly standardized mean difference (SSMD) scores for classifying assay quality were calculated with respect to negative controls on a plate-wise basis, with the average assay quality being excellent for both cell lines and screened concentrations. […] As a hit selection metric we used z-scores, which measure the number of standard deviations from the negative control that a small molecule treatment causes. Z-scores were calculated on a plate-wise basis, and hit cutoffs of z=±3 were selected. Visual inspection of images was used to remove false-positive hits, which generally occurred due to autofluorescence of a few of the compounds.

S2 cells [2] = experiment: as above; details: for compound z-score (zS2): 4 days, z vs negative control, hit cutoffs z=±3; for hit call, primary screen: hit cutoffs ±3
Experimental: as §1, §2, §3, §4, §5

C1.8 cells [3] = experiment: Secondary screen in ZB Media (ZO Fortified with spermidine), CyQUANT; details: C1.8 cells in ZB Media, hit cutoffs ±3
Experimental: as §1, §2
(§6) Representative positive and negative control wells can be found in FIG. 7. Compound z-scores were calculated similarly, hit cutoffs of ±3 were established visual inspection of confocal images was used to remove false-positive hits. This analysis yielded 8 C1.8 and 27 S2 positive hit compounds and 12 C1.8 and 27 S2 negative hit compounds (FIGS. 8-10).

S2 cells [4] = experiment: as above; details: hit cutoffs ±3
Experimental: as §1, §2, §6

[5] = tested on: polyamine-depleted C1.8 cells; experiment: Polyamine-depleted spermidine dose-response, manual cell count; details: ZO Fortified
Experimental: C1.8 cells were rinsed three times in PBS and seeded in ZO Fortified at 1×10^6 cell/mL. After nine days of culture in ZO Fortified, cells were harvested and seeded in tissue culture flasks in ZO Fortified supplemented with 0, 0.1, 1, or 10 μM spermidine (in triplicate). After 6 days of culture, cells were manually counted.

ERK in C1.8 cells = experiment: Western blot of ERK and dpERK (MAPK activity)
Experimental: (§7) For western blots, C1.8 and S2 cells were rinsed three times in PBS and seeded in tissue culture flasks at a concentration of 1,000,000 cell/mL in the various media. Cells were cultured until positive control samples (complete media) reached ˜90% confluency, at which point all cell samples were lysed for 30 minutes on ice in a buffer containing 50 mM Tris, 150 mM NaCl, 1% Nonidet P 40 substitute (Sigma 74385), and 1% Sigma protease inhibitor cocktail (P8340). Nucleic acid and cell debris were cleared by centrifugation at 12,000 rpm for 20 minutes at 4° C. Because polyamines are known to play roles in initiation of transcription and translation, “housekeeping” genes routinely used as loading controls for western blots are likely inappropriate for this application. Thus samples were normalized by total loaded protein. Sample protein concentrations were determined three independent times per sample using Coomassie Plus (Bradford) Assay (Thermo Scientific 23238). ANOVA comparison of loading concentrations across all samples found no significant variation between samples (p>0.34). Proteins were resolved by SDS-PAGE in reducing conditions, electroblotted to PVDF membranes (Hybone 10600087), and probed with either 1:1000 anti-rabbit p44/p42 MAPK (Erk1/2) (Cell Signaling) or 1:1500 anti-mouse MAPK (dpERK1/2) (Sigma). Blots were developed using WesternBreeze chromogenic western blot immunodetection kit (Invitrogen) and quantification was done in Fiji (Schindelin et al., Nat. Methods, 2012, 9, 676-682).

ERK in S2 cells = experiment: Western blot of ERK and dpERK (MAPK activity); details: spermidine supplementation, p>0.45
Experimental: as §7

C1.8 cells [6] = experiment: Long-term culture in chemically defined medium; details: passaged 1:2 retaining half of spent media
Experimental: (§8) Cells were rinsed 3× in PBS and then seeded at high confluency in ZO Fortified and ZB Media (ZO Fortified supplemented with 1 μM spermidine). Upon reaching confluency, cells were passaged 1:2 retaining half of the spent media.
(§9) C1.8, S2, and Kc167 (Kc) cells were expanded in optimized serum-containing media, C1.8, S2, and Kc167 media, respectively. C1.8 media contains M3 media (Sigma-Aldrich) supplemented with FBS (2%), insulin (5 μg/m), and fly extract (2.5%). S2 media is based on Schneider's media (Gibco® Life Technologies) supplemented with FBS (10%). Kc media containing M3 media supplemented with yeast extract (10 mg/mL), bactopeptone (25 mg/mL), and 5% FBS. All cell lines were obtained and cultured according to instructions from the Drosophila Genomics Resource Center (DGRC). Fly extract was prepared from adult yw flies as described by the DGRC. For culture in chemically defined media, cells were rinsed three times in PBS to remove residual serum and seeded at around 70% confluency in ZO Fortified or ZB Media (ZO Fortified with 1 μM spermidine added at time of passage). Upon reaching confluency, cells were passaged 1:2 retaining half the spent media, similar to routine maintenance in complete media, with cells passaged in ZB Media receiving fresh doses of 1 μM spermidine.

S2 cells [7] = experiment: Long-term culture in chemically defined medium; details: passaged 1:2 retaining half of spent media
Experimental: as §8, §9

Structure (SMILES)	compound z-score (zC1.8) (C1.8 cells [1])	compound z-score (zS2) (S2 cells [2])	hit call, primary screen (C1.8 cells [1])	hit call, primary screen (S2 cells [2])	also measured
CC(C)(C)c1cc(/C=C(\C#N)C(N)=S)cc(C(C)(C)C)c1O [AG-879]	−17.3	−13.9			
CC(O)=C(C#N)C(=O)Nc1cc(Br)ccc1Br [LFM-A13, α-cyano-β-hydroxy-β-methyl-N-(2,5-dibromophenyl)propen-amide]					hit call, secondary screen (C1.8 cells [3]): positive hit; hit call, secondary screen (S2 cells [4]): positive hit
CO[C@@H]1[C@H](N(C)C(=O)c2ccccc2)C[C@H]2O[C@]1(C)n1c3ccccc3c3c4c(c5c6ccccc6n2c5c31)C(=O)NC4 [PKC-412]	−17.1	−11.0			
NCCCCN [putrescine, butane-1,4-diamine]			positive hits	positive hits	
Cc1cc(/C=C/c2ccc3cc(N(C)C)ccc3[n+]2C)c(C)n1-c1ccccc1 [pyrvinium pamoate]	−17.7	−13.0			
NCCCCNCCCN [spermidine]	10.0	8.7	positive hit	positive hit	proliferation (cell number) ([5]; 1 μM spermidine compared to 0 or 0.1 μM, 6 days, p<5×10^−10): significant increase in proliferation; proliferation (cell number) ([5]; higher dose (10 μM) spermidine, after 6 days): failed to produce any statistically significant increases in cell number; ERK double phosphorylation (dpERK) (ERK in C1.8 cells; spermidine supplementation (ZB Media) vs ZO Fortified, p<0.012): increase ERK double phosphorylation; total ERK levels (ERK in C1.8 cells; spermidine supplementation, p>0.45): not significantly influenced; total ERK levels (ERK in S2 cells): not significantly influenced; passages reached in long-term culture (C1.8 cells [6]): ≥ 98 passages; passages reached in long-term culture (C1.8 cells [6]; listed as Spermidine): > 15 passages; passages reached in long-term culture (S2 cells [7]): 4 passages
NCCCNCCCCNCCCN [spermine]	10.4	17.7	positive hit	positive hit	
CN[C@@H]1C[C@H]2O[C@@](C)([C@@H]1OC)n1c3ccccc3c3c4c(c5c6ccccc6n2c5c31)C(=O)NC4 [staurosporine]	−18.6	−17.3			
CC1=C(O)C(=O)[C@@H]2O[C@@H]2C1=O [terreic acid]					hit call, secondary screen (C1.8 cells [3]): positive hit; hit call, secondary screen (S2 cells [4]): positive hit
